Experimental data as given in the NIST ThermoML archive (doi:10.1021/je900468u).

How the values were obtained:
[1] = xn = mol fraction of the nth substance listed; conditions: 101 kPa, Liquid; for speed of sound: Pulse-echo method
[2] = refractive index (Na D-line) (dimensionless); xn = mol fraction of the nth substance listed; conditions: 101 kPa, Liquid, Standard Abbe refractometry

c1ccccc1 [benzene] + C1CCCCC1
x2 = 0
Conditions | mass density, [1] [kg/m3] | refractive index, [2] | speed of sound, [1] [m/s]
283.15 K | 889.5 | 1.50765 | 1371
298.15 K | 873.9 | 1.49774 | 1299

c1ccccc1 [benzene] + C1CCCCCCC1
298.15 K, x2 = 0
Conditions | mass density [kg/m3] | refractive index | speed of sound [m/s]
[1] | 873.6 | – | 1299
[2] | – | 1.49774 | –

c1ccccc1 [benzene] + CC1CCCCC1
x2 = 0
Conditions | mass density, [1] [kg/m3] | refractive index, [2] | speed of sound, [1] [m/s]
283.15 K | 889.5 | 1.50765 | 1371
298.15 K | 873.6 | 1.49774 | 1299

C1CCCCC1 [cyclohexane] + CCc1ccccc1
x1 = 1
Conditions | mass density, [1] [kg/m3] | refractive index, [2] | speed of sound, [1] [m/s]
283.15 K | 787.8 | 1.43193 | 1329
298.15 K | 773.9 | 1.4236 | 1255

C1CCCCC1 [cyclohexane] + Cc1ccccc1
Conditions | mass density, [1] [kg/m3] | refractive index, [2] | speed of sound, [1] [m/s]
283.15 K, x1 = 0.0484 | 871 | 1.4988 | 1365
283.15 K, x1 = 0.099 | 865.8 | 1.49476 | 1360
283.15 K, x1 = 0.1997 | 855.8 | 1.48684 | 1351
283.15 K, x1 = 0.2973 | 846.1 | 1.47919 | 1344
283.15 K, x1 = 0.3975 | 836.6 | 1.47167 | 1337
283.15 K, x1 = 0.4999 | 827.3 | 1.46416 | 1331
283.15 K, x1 = 0.5881 | 819.6 | 1.45803 | 1328
283.15 K, x1 = 0.699 | 810.3 | 1.45054 | 1325
283.15 K, x1 = 0.7985 | 802.4 | 1.44407 | 1324
283.15 K, x1 = 0.8961 | 795.1 | 1.43794 | 1325
283.15 K, x1 = 0.9497 | 791.3 | 1.43489 | 1327
283.15 K, x1 = 1 | – | – | 1329
298.15 K, x1 = 0.0484 | 857.2 | 1.49021 | 1300
298.15 K, x1 = 0.099 | 852 | 1.48614 | 1294
298.15 K, x1 = 0.1997 | 842 | 1.47829 | 1285
298.15 K, x1 = 0.2973 | 832.3 | 1.47073 | 1276
298.15 K, x1 = 0.3975 | 822.8 | 1.4632 | 1269
298.15 K, x1 = 0.4999 | 813.4 | 1.4558 | 1263
298.15 K, x1 = 0.5881 | 805.7 | 1.44964 | 1258
298.15 K, x1 = 0.699 | 796.4 | 1.44216 | 1254
298.15 K, x1 = 0.7985 | 788.4 | 1.4358 | 1252
298.15 K, x1 = 0.8961 | 781.1 | 1.42971 | 1252
298.15 K, x1 = 0.9497 | 777.4 | 1.42663 | 1253
298.15 K, x1 = 1 | 773.9 | 1.4236 | 1255

C1CCCCC1 [cyclohexane] + c1ccccc1
Conditions | mass density, [1] [kg/m3] | refractive index, [2] | speed of sound, [1] [m/s]
283.15 K, x1 = 0.047 | 882.7 | 1.50275 | 1364
283.15 K, x1 = 0.0984 | 875.6 | 1.49741 | 1358
283.15 K, x1 = 0.1978 | 862.4 | 1.48772 | 1346
283.15 K, x1 = 0.2968 | 850.4 | 1.47886 | 1338
283.15 K, x1 = 0.3929 | 839.4 | 1.47071 | 1331
283.15 K, x1 = 0.4996 | 828.3 | 1.46247 | 1326
283.15 K, x1 = 0.6003 | 818.8 | 1.45532 | 1323
283.15 K, x1 = 0.7022 | 809.9 | 1.44865 | 1322
283.15 K, x1 = 0.7963 | 802.3 | 1.44324 | 1322
283.15 K, x1 = 0.8954 | 794.9 | 1.43781 | 1325
283.15 K, x1 = 0.9501 | 791.2 | 1.43453 | 1327
283.15 K, x1 = 1 | 787.8 | 1.43193 | 1329
298.15 K, x1 = 0.047 | 867.1 | 1.49298 | 1293
298.15 K, x1 = 0.0984 | 859.9 | 1.48771 | 1286
298.15 K, x1 = 0.1978 | 847 | 1.47808 | 1275
298.15 K, x1 = 0.2968 | 835.2 | 1.46965 | 1266
298.15 K, x1 = 0.3929 | 824.5 | 1.46157 | 1259
298.15 K, x1 = 0.4996 | 813.6 | 1.45354 | 1254
298.15 K, x1 = 0.6003 | 804.2 | 1.44654 | 1251
298.15 K, x1 = 0.7022 | 795.5 | 1.44001 | 1249
298.15 K, x1 = 0.7963 | 788 | 1.43431 | 1249
298.15 K, x1 = 0.8954 | 780.8 | 1.42891 | 1250
298.15 K, x1 = 0.9501 | 777.2 | 1.42611 | 1252
298.15 K, x1 = 1 | 773.9 | 1.4236 | 1255

C1CCCCCCC1 [cyclooctane] + CCc1ccccc1
298.15 K
Conditions | mass density, [1] [kg/m3] | refractive index, [2] | speed of sound, [1] [m/s]
x1 = 0.0465 | 860.4 | 1.49082 | 1321
x1 = 0.0962 | 858.3 | 1.48858 | 1322
x1 = 0.1961 | 854.1 | 1.48405 | 1327
x1 = 0.2944 | 850.3 | 1.47983 | 1332
x1 = 0.3975 | 846.6 | 1.47562 | 1339
x1 = 0.4959 | 843.4 | 1.47185 | 1346
x1 = 0.5935 | 840.4 | 1.46828 | 1353
x1 = 0.6929 | 837.6 | 1.46489 | 1361
x1 = 0.7954 | 835.2 | 1.4616 | 1370
x1 = 0.8899 | 833.2 | 1.45885 | 1379
x1 = 0.9497 | 832.1 | 1.45726 | 1385
x1 = 1 | 831.5 | 1.45598 | 1391

C1CCCCCCC1 [cyclooctane] + Cc1ccccc1
298.15 K
Conditions | mass density, [1] [kg/m3] | refractive index, [2] | speed of sound, [1] [m/s]
x1 = 0.0488 | 859.8 | 1.49121 | 1307
x1 = 0.1031 | 857 | 1.48824 | 1309
x1 = 0.2021 | 852.5 | 1.48313 | 1315
x1 = 0.2973 | 848.5 | 1.47861 | 1321
x1 = 0.4014 | 844.7 | 1.47411 | 1329
x1 = 0.5 | 841.5 | 1.47026 | 1337
x1 = 0.6005 | 838.7 | 1.46667 | 1347
x1 = 0.6976 | 836.4 | 1.46358 | 1356
x1 = 0.7981 | 834.4 | 1.46073 | 1367
x1 = 0.9007 | 832.8 | 1.45814 | 1378
x1 = 0.9494 | 832.1 | 1.45705 | 1384
x1 = 1 | 831.5 | 1.45598 | 1391

C1CCCCCCC1 [cyclooctane] + c1ccccc1
298.15 K
Conditions | mass density, [1] [kg/m3] | refractive index, [2] | speed of sound, [1] [m/s]
x1 = 0.0522 | 869.3 | 1.49384 | 1300
x1 = 0.102 | 865.4 | 1.49019 | 1301
x1 = 0.203 | 858.5 | 1.48375 | 1306
x1 = 0.3029 | 852.8 | 1.47827 | 1313
x1 = 0.4033 | 847.9 | 1.47346 | 1322
x1 = 0.5002 | 843.9 | 1.46955 | 1331
x1 = 0.5985 | 840.5 | 1.46607 | 1342
x1 = 0.7025 | 837.5 | 1.46284 | 1354
x1 = 0.7983 | 835.2 | 1.4603 | 1365
x1 = 0.8946 | 833.3 | 1.45808 | 1377
x1 = 0.9504 | 832.4 | 1.45694 | 1384
x1 = 1 | 831.5 | 1.45598 | 1391

CCc1ccccc1 [ethylbenzene] + C1CCCCC1
Conditions | mass density, [1] [kg/m3] | refractive index, [2] | speed of sound, [1] [m/s]
283.15 K, x2 = 0 | 875.7 | 1.50129 | 1382
283.15 K, x2 = 0.0476 | 871.4 | 1.49802 | 1377
283.15 K, x2 = 0.0982 | 866.9 | 1.49455 | 1372
283.15 K, x2 = 0.1983 | 857.9 | 1.48762 | 1364
283.15 K, x2 = 0.2982 | 848.9 | 1.48066 | 1356
283.15 K, x2 = 0.3973 | 840.1 | 1.47373 | 1349
283.15 K, x2 = 0.5016 | 830.7 | 1.46641 | 1342
283.15 K, x2 = 0.6008 | 821.8 | 1.45942 | 1337
283.15 K, x2 = 0.6995 | 813.2 | 1.45257 | 1332
283.15 K, x2 = 0.7998 | 804.4 | 1.44558 | 1329
283.15 K, x2 = 0.8967 | 796.3 | 1.43898 | 1328
283.15 K, x2 = 0.9451 | 792.3 | 1.43569 | 1328
298.15 K, x2 = 0 | 862.5 | 1.49304 | 1319
298.15 K, x2 = 0.0476 | 858.2 | 1.48992 | 1314
298.15 K, x2 = 0.0982 | 853.7 | 1.48645 | 1309
298.15 K, x2 = 0.1983 | 844.7 | 1.47947 | 1300
298.15 K, x2 = 0.2982 | 835.6 | 1.47245 | 1291
298.15 K, x2 = 0.3973 | 826.7 | 1.46552 | 1283
298.15 K, x2 = 0.5016 | 817.2 | 1.45815 | 1275
298.15 K, x2 = 0.6008 | 808.3 | 1.45116 | 1268
298.15 K, x2 = 0.6995 | 799.5 | 1.44433 | 1263
298.15 K, x2 = 0.7998 | 790.7 | 1.43731 | 1258
298.15 K, x2 = 0.8967 | 782.4 | 1.43062 | 1255
298.15 K, x2 = 0.9451 | 778.4 | 1.42735 | 1254

CCc1ccccc1 [ethylbenzene] + C1CCCCCCC1
298.15 K, x2 = 0
Conditions | mass density [kg/m3] | refractive index | speed of sound [m/s]
[1] | 862.5 | – | 1319
[2] | – | 1.49304 | –

CCc1ccccc1 [ethylbenzene] + CC1CCCCC1
x2 = 0
Conditions | mass density, [1] [kg/m3] | refractive index, [2] | speed of sound, [1] [m/s]
283.15 K | 875.7 | 1.50129 | 1382
298.15 K | 862.5 | 1.49304 | 1319
